Experimental data published in ChEMBL document CHEMBL1159056, “Antitumor agents. 271: total synthesis and evaluation of brazilein and analogs as anti-inflammatory and cytotoxic agents” (Bioorg Med Chem Lett, 2010).
Converted amounts (≈) assume the structure as drawn.

Tests used:
DU-145 = experiment: Cytotoxicity against human DU145 cells; format: functional, cell-based
[1] = Antiinflammatory activity in human neutrophils assessed as inhibition of fMLP/cytochalasin B-induced elastase release; format: functional, cell-based; settings: Neutrophil
KB = experiment: Cytotoxicity against human KB cells; format: functional, cell-based
[2] = Antiinflammatory activity in human neutrophils assessed as inhibition of fMLP/cytochalasin B-induced superoxide anion generation; format: functional, cell-based; settings: Neutrophil
[3] = Cytotoxicity against human KBVIN cells; format: functional, cell-based
A549 = experiment: Cytotoxicity against human A549 cells; format: functional, cell-based
MDA-MB-231 = experiment: Cytotoxicity against human MDA-MB-231 cells; format: functional, cell-based
MCF7 = experiment: Cytotoxicity against human MCF7 cells; format: functional, cell-based
Ca9-22 = experiment: Cytotoxicity against human Ca9-22 cells; format: functional, cell-based
[4] = Cytotoxicity against human Hep3B cells; format: functional, cell-based, Hep 3B2
HepG2 = experiment: Cytotoxicity against human HepG2 cells; format: functional, cell-based
[5] = Antiinflammatory activity in human neutrophils assessed as inhibition of fMLP/cytochalasin B-induced elastase release at 10 ug/mL; format: functional; settings: Neutrophil
[6] = Antiinflammatory activity in human neutrophils assessed as inhibition of fMLP/cytochalasin B-induced superoxide anion generation at 10 ug/mL; format: functional; settings: Neutrophil

Row | IC50 [1] | IC50 [2] | SMILES | IC50 (DU-145) | IC50 (KB) | IC50 [3] | IC50 (A549) | also measured
1 | 13.6 µM | 4.65 µM | COC1=CC2=C3c4ccc(OC)cc4OCC3(OC)CC2=CC1=O (stereo not given) | 17.5 µM | 15.2 µM | 16.9 µM | > 20 µM | –
2 | 14.2 µM | 4 µM | O=C1C=C2CC3(O)COc4cc(O)ccc4C3=C2C=C1O (stereo not given) [BRAZILEIN] | – | – | – | 9.68 µg/mL | IC50 (MDA-MB-231): 2.36 µg/mL (≈ 8.3 µM); IC50 (MCF7): 3.96 µg/mL (≈ 13.9 µM); IC50 (Ca9-22): 8.63 µg/mL (≈ 30.4 µM); IC50 [4]: 3.42 µg/mL (≈ 12 µM); IC50 (HepG2): 3.15 µg/mL (≈ 11.1 µM)
3 | 11.8 µM | 16.2 µM | C=CCOC1=CC2=C3c4ccc(OCC=C)cc4OCC3(OCC=C)CC2=CC1=O (stereo not given) | – | – | – | – | –
4 | – | – | CN(C)C(=O)OC1=CC2=C3c4ccc(OC(=O)N(C)C)cc4OCC3(O)CC2=CC1=O (stereo not given) | – | – | – | – | inhibition at 10 µg/mL [5]: 11.4%; inhibition at 10 µg/mL [6]: 16.4%
5 | 10.2 µM | 8.38 µM | COc1ccc2c(c1)OCC(O)(Cc1ccc(OC)c(OC)c1)C2O (stereo not given) | > 20 µM | > 20 µM | > 20 µM | > 20 µM | –
6 | – | – | COC1=CC2=C3c4ccc(OC)cc4OCC3(O)CC2=CC1=O (stereo not given) | – | – | – | – | inhibition at 10 µg/mL [5]: 26.8%; inhibition at 10 µg/mL [6]: 18.6%
7 | 16.5 µM | 19.7 µM | C=CCOC1=CC2=C3c4ccc(OCC=C)cc4OCC3(O)CC2=CC1=O (stereo not given) | 9.1 µM | 5.4 µM | – | 9.4 µM | –
8 | 16.7 µM | 4.6 µM | Oc1ccc2c(c1)OC[C@]1(O)Cc3cc(O)c(O)cc3[C@H]21 [BRAZILIN] | – | – | – | 15.6 µg/mL | IC50 (MDA-MB-231): 3.09 µg/mL (≈ 10.8 µM); IC50 (MCF7): 6.29 µg/mL (≈ 22 µM); IC50 (Ca9-22): 9.78 µg/mL (≈ 34.2 µM); IC50 [4]: 4.54 µg/mL (≈ 15.9 µM); IC50 (HepG2): 3.47 µg/mL (≈ 12.1 µM)
9 | 10.1 µM | 19.7 µM | CC(C)=CCOC1=CC2=C3c4ccc(OCC=C(C)C)cc4OCC3(O)CC2=CC1=O (stereo not given) | – | – | – | – | –
10 | – | – | COc1ccc2c(c1)OC/C(=C\c1ccc(OC)c(OC)c1)C2=O | > 20 µM | > 20 µM | 18.3 µM | > 20 µM | –
11 | – | 1.9 µM | COc1ccc2c(c1)OCC1(OC1c1ccc(OC)c(OC)c1)C2=O (stereo not given) | 10.6 µM | 9.8 µM | 6.4 µM | > 20 µM | inhibition at 10 µg/mL [5]: 43.7%
12 | – | 23.9 µM | CCOC1=CC2=C3c4ccc(OCC)cc4OCC3(OCC)CC2=CC1=O (stereo not given) | 18.1 µM | 18.9 µM | 17.9 µM | > 20 µM | inhibition at 10 µg/mL [5]: 35.5%
13 | – | – | CC(=O)O[C@H]1C(=O)[C@@]2(C)[C@H]([C@H](OC(=O)c3ccccc3)[C@]3(O)C[C@H](OC(=O)[C@H](O)[C@@H](NC(=O)c4ccccc4)c4ccccc4)C(C)=C1C3(C)C)[C@]1(OC(C)=O)CO[C@@H]1C[C@@H]2O [PACLITAXEL] | – | 0.00155 µM | 0.00109 µM | 0.00193 µM | –
14 | 15.5 µM | – | CCN(CC)C(=O)OC1=CC2=C3c4ccc(OC(=O)N(CC)CC)cc4OCC3(O)CC2=CC1=O (stereo not given) | – | – | – | – | inhibition at 10 µg/mL [6]: -7%
15 | – | – | COc1cccc2c1C(=O)c1c(O)c3c(c(O)c1C2=O)C[C@@](O)(C(=O)CO)C[C@@H]3O[C@H]1C[C@H](N)[C@H](O)[C@H](C)O1 [DOXORUBICIN] | – | – | – | 0.32 µg/mL | IC50 (MDA-MB-231): 1.05 µg/mL (≈ 1.93 µM); IC50 (MCF7): 0.42 µg/mL (≈ 0.773 µM); IC50 [4]: 0.56 µg/mL (≈ 1.03 µM); IC50 (HepG2): 0.34 µg/mL (≈ 0.626 µM)
16 | – | 4.52 µM | COc1ccc2c(c1)OCC1(O)Cc3cc(OC)c(OC)cc3C21 (stereo not given) | 13.8 µM | 10.5 µM | 7.6 µM | > 20 µM | inhibition at 10 µg/mL [5]: 35.8%
17 | 3.28 µM | 1.65 µM | CCC(=O)OC1=CC2=C3c4ccc(OC(=O)CC)cc4OCC3(O)CC2=CC1=O (stereo not given) | 7.1 µM | 7.7 µM | – | 7.8 µM | –
18 | 1.9 µM | 1.2 µM | CCC(=O)OC1=CC2=C3c4ccc(OC(=O)CC)cc4OCC3(OC(=O)CC)CC2=CC1=O (stereo not given) | 11 µM | 6.6 µM | 11.3 µM | 13.5 µM | –
19 | – | 18.7 µM | CC(=O)OC1=CC2=C3c4ccc(OC(C)=O)cc4OCC3(O)CC2=CC1=O (stereo not given) | 8.2 µM | 10 µM | – | 8.1 µM | inhibition at 10 µg/mL [5]: 40.9%
20 | 8.76 µM | – | O=C1C=C2CC3(O)COc4cc(OCc5ccccc5)ccc4C3=C2C=C1OCc1ccccc1 (stereo not given) | – | – | – | – | inhibition at 10 µg/mL [6]: 33.4%
21 | 8.37 µM | 4.35 µM | CCOC1=CC2=C3c4ccc(OCC)cc4OCC3(O)CC2=CC1=O (stereo not given) | 11 µM | 11.3 µM | 16.5 µM | 15.3 µM | –
22 | 13.2 µM | – | O=C1C=C2CC3(OC(=O)c4ccccc4)COc4cc(OC(=O)c5ccccc5)ccc4C3=C2C=C1OC(=O)c1ccccc1 (stereo not given) | – | – | – | – | inhibition at 10 µg/mL [6]: 14.1%

Row | SMILES | IC50 [1] | IC50 [2] | IC50 (DU-145) | IC50 (KB) | IC50 [3] | IC50 (A549) | also measured
23 | c1ccc2c(c1)[I+]c1ccccc1-2 [DIPHENYLENEIODONIUM] | – | 0.7 µM | – | – | – | – | –
